Reference: PMC10611828 (European Journal of Nuclear Medicine and Molecular Imaging, 2023)
Like-named read-outs stand apart in the source and are kept apart here.

How the values were obtained:
[1] = Stability in mouse serum at 37 °C (radio-HPLC); type: in vitro ADME; settings: read-out: intact radiolabeled ligand (RCP)
Method: (§1) The ^177Lu-labeled peptides were incubated in 300-μL phosphate buffered saline (PBS; Gibco, ThermoFisher, The Netherlands) at 37 °C, and their stability was verified after 1, 4, 24, 48, and 72 h by radio-HPLC (Supplementary Fig. 2). The stability in serum was determined by incubating the radiolabeled compounds into 300 μL of mouse serum (Invitrogen, USA) or human serum (Sigma Aldrich, USA) at 37 °C (Supplementary Fig. 3, 4). At each time point post-incubation, 35 μL of the mixture was added to an Eppendorf tube, and the proteins were precipitated by adding an equal volume of acetonitrile. The tubes were centrifuged at 16,000 rpm, 4 °C for 20 min, and the stability was monitored by radio-HPLC, expressed as the RCP at the different time points.

[2] = Stability in human serum at 37 °C (radio-HPLC); type: in vitro ADME; settings: read-out: intact radiolabeled ligand (RCP)
Method: as §1

[3] = In vivo biodistribution and clearance in PC-3 tumor-bearing mice; settings: male, NMRI-Foxn1 nu/nu, mouse, iv, total radioactivity, i.v.; for tissue uptake at 1 h: 1 h p.i.; for tissue uptake at 4 h: 4 h p.i.; for tissue uptake at 24 h: 24 h p.i.; for tissue uptake at 48 h: 48 h p.i.; for tissue uptake at 72 h: 72 h p.i.
Method: All animal experiments were approved by the Animal Welfare Committee of the Erasmus MC, and all experiments were conducted in accordance to institutional guidelines.
At 1, 4, 24, 48, and 72 h post-injection (p.i.), animals were sedated using 2.5% isoflurane in oxygen, and blood was collected via the orbital vein, after which the animals were euthanized using cervical dislocation. Subsequently, the following organs were collected; the tail, tumor, spleen, liver, pancreas, small intestine, colon, coecum, kidneys, lung, and muscle. […] The collected tumor and organs were weighed, and the radioactivity was measured in the gamma counter. The biodistribution data are expressed as percentage injected dose per gram of tissue (% ID/g). Animal numbers per group are indicated in Supplementary Table 1 and 2.
Statistical analysis was performed using Graphpad Prism version 9.0.0. Outliers were identified using the ROUT method with a Q value of 1%. IC50 curves were determined using non-linear regression.

[4] = PC-3 tumor, read-out: % uptake PC-3 tumor
[5] = gastrointestinal tract, read-out: % uptake gastrointestinal tract
[6] = kidney, read-out: % uptake kidney
[7] = liver, read-out: % uptake liver
[8] = muscle, read-out: % uptake muscle
[9] = pancreas, read-out: % uptake pancreas
[10] = prostate, read-out: % uptake prostate
[11] = spleen, read-out: % uptake spleen

- remaining at 1 h ([1]; 1 h): 90.9 ± 0.5%
- remaining at 24 h ([1]; 24 h): 29.6 ± 1.2%
- remaining at 48 h ([1]; 48 h): 17.1 ± 3.5%
- remaining at 72 h ([1]; 72 h): 5.3 ± 0.9%
- remaining at 1 h ([2]; 1 h): 96.7 ± 0.7%
- remaining at 4 h ([2]; 4 h): 95.5 ± 1.1%
- remaining at 24 h ([2]; 24 h): 94.9 ± 1.5%
- remaining at 48 h ([2]; 48 h): 92.3 ± 1.9%
- remaining at 72 h ([2]; 72 h): 88.4 ± 0.6%
- tissue uptake at 1 h [3, 4]: 9.27 ± 1.81 %ID/g
- tissue uptake at 4 h [3, 4]: 9.14 ± 0.94 %ID/g
- tissue uptake at 24 h [3, 4]: 7.32 %ID/g
- tissue uptake at 48 h [3, 4]: 5.47 %ID/g
- tissue uptake at 72 h [3, 4]: 2.97 %ID/g
- tissue uptake at 1 h ([3]; blood, read-out: % uptake blood): 0.3 %ID/g
- tissue uptake at 1 h [3, 5]: 1.75 %ID/g
- tissue uptake at 4 h [3, 5]: 0.56 %ID/g
- tissue uptake at 24 h [3, 5]: 0.05 %ID/g
- tissue uptake at 48 h [3, 5]: 0.03 %ID/g
- tissue uptake at 72 h [3, 5]: 0.01 %ID/g
- tissue uptake at 1 h [3, 6]: 3 %ID/g
- tissue uptake at 4 h [3, 6]: 1.69 %ID/g
- tissue uptake at 24 h [3, 6]: 0.63 %ID/g
- tissue uptake at 48 h [3, 6]: 0.26 %ID/g
- tissue uptake at 72 h [3, 6]: 0.12 %ID/g
- tissue uptake at 1 h [3, 7]: 0.2 %ID/g
- tissue uptake at 4 h [3, 7]: 0.09 %ID/g
- tissue uptake at 24 h [3, 7]: 0.04 %ID/g
- tissue uptake at 48 h [3, 7]: 0.03 %ID/g
- tissue uptake at 72 h [3, 7]: 0.02 %ID/g
- tissue uptake at 1 h ([3]; lung, read-out: % uptake lungs): 0.3 %ID/g
- tissue uptake at 4 h ([3]; lung, read-out: % uptake lungs): 0.04 %ID/g
- tissue uptake at 24 h ([3]; lung, read-out: % uptake lungs): 0.02 %ID/g
- tissue uptake at 48 h ([3]; lung, read-out: % uptake lungs): 0.01 %ID/g
- tissue uptake at 72 h ([3]; lung, read-out: % uptake lungs): 0.01 %ID/g
- tissue uptake at 1 h [3, 8]: 0.06 %ID/g
- tissue uptake at 4 h [3, 8]: 0.01 %ID/g
- tissue uptake at 24 h [3, 8]: 0.01 %ID/g
- tissue uptake at 1 h [3, 9]: 14.4 ± 2.56 %ID/g
- tissue uptake at 4 h [3, 9]: 2.07 ± 0.3 %ID/g
- tissue uptake at 24 h [3, 9]: 0.25 %ID/g
- tissue uptake at 48 h [3, 9]: 0.14 %ID/g
- tissue uptake at 72 h [3, 9]: 0.05 %ID/g
- tissue uptake at 1 h [3, 10]: 1.08 %ID/g
- tissue uptake at 4 h [3, 10]: 0.03 %ID/g
- tissue uptake at 24 h [3, 10]: 0.03 %ID/g
- tissue uptake at 48 h [3, 10]: 0.02 %ID/g
- tissue uptake at 72 h [3, 10]: 0.01 %ID/g
- tissue uptake at 1 h [3, 11]: 0.19 %ID/g
- tissue uptake at 4 h [3, 11]: 0.06 %ID/g
- tissue uptake at 24 h [3, 11]: 0.04 %ID/g
- tissue uptake at 48 h [3, 11]: 0.03 %ID/g
- tissue uptake at 72 h [3, 11]: 0.02 %ID/g
Compound: CC(C)C[C@H](NC(=O)C[C@H](O)[C@H](CC(C)C)NC(=O)[C@H](Cc1c[nH]cn1)NC(=O)CNC(=O)[C@@H](NC(=O)[C@H](C)NC(=O)[C@H](Cc1c[nH]c2ccccc12)NC(=O)[C@H](CCC(N)=O)NC(=O)[C@@H](Cc1ccccc1)NC(=O)CN1CCC(NC(=O)CN2CCN(CC(=O)O)CCN(CC(=O)O)CCN(CC(=O)O)CC2)CC1)C(C)C)C(N)=O [[^177Lu]Lu-RM2, metal not drawn]
